Source: ChEMBL document CHEMBL1811812, “Identification of a novel selective H1-antihistamine with optimized pharmacokinetic properties for clinical evaluation in the treatment of insomnia” (Bioorg Med Chem Lett, 2010)
Active and inactive are the calls of the source. The calls are words filed in the database; no cut-off is given here.

Assays:
[1] = test system: Rattus norvegicus; test: Effect on sleep-awake cycle in EEG/EMG rat model assessed as increase in non rapid eye movement sleep at 30 mg/kg measured up to 4 hrs relative to control; assay type: functional
[2] = test system: Rattus norvegicus; test: Effect on sleep-awake cycle in EEG/EMG rat model assessed as latency to 1 min NREM sleep at 30 mg/kg measured up to 4 hrs relative to control; assay type: functional
[3] = species: Homo sapiens; test: Selectivity for histamine H1 receptor over histamine H2 receptor in human conjuctival mast cells
[4] = test system: Rattus norvegicus; test: Effect on sleep-awake cycle in EEG/EMG rat model assessed as increase in non rapid eye movement sleep at 60 mg/kg measured up to 4 hrs relative to control; assay type: functional
[5] = test system: Rattus norvegicus; test: Effect on sleep-awake cycle in EEG/EMG rat model assessed as latency to 1 min NREM sleep at 60 mg/kg measured up to 4 hrs relative to control; assay type: functional
[6] = Elimination half life in human at 50 mg by RIA; assay type: ADME, organism-based; conditions: in vivo, read-out: beta t1/2 (converted)
[7] = species: Homo sapiens; test: Toxicity in human assessed as residual effect at 1 mg to 3 mg; assay type: organism-based; conditions: in vivo
[8] = species: Homo sapiens; test: Antiinsomnic activity in human assessed as duration of sleep maintenance at 1 mg; assay type: functional
[9] = species: Homo sapiens; test: Antiinsomnic activity in human assessed as duration of sleep maintenance at 1 mg after 8 hrs; assay type: functional, organism-based
[10] = Clearance in EEG/EMG rat model; conditions: in vivo
[11] = Dissociation constant, pKa of the compound
[12] = AUC (0 to t) in human at […], po; assay type: ADME, organism-based; design: route oral; conditions: plasma
[13] = Systemic clearance in human at […]; assay type: ADME, organism-based; conditions: in vivo
[14] = Half life in human at […], po; assay type: ADME, organism-based; design: route oral; conditions: in vivo
[15] = Plasma concentration in human at […] after 1 hr; assay type: ADME, organism-based
[16] = target: Cytochrome P450 3A4 (Homo sapiens, UniProt P08684)
Sequence of Cytochrome P450 3A4 (P08684 whole entry): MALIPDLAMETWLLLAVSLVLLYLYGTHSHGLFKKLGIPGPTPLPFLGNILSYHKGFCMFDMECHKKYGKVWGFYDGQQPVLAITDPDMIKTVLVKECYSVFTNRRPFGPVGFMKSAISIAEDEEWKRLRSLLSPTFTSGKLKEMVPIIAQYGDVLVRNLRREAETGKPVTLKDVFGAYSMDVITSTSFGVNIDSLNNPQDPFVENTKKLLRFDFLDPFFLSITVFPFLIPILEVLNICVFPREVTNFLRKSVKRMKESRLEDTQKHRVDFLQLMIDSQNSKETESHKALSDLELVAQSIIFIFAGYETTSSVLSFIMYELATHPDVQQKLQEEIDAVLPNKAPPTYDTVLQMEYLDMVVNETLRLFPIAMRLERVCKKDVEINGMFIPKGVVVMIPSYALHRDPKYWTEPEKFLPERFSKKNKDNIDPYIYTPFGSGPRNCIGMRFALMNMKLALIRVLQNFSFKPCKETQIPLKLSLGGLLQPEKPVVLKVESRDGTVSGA

[17] = clinical; conditions: human, plasma, 0.1 mg/kg
Description: AUC (0 to t) in human at 0.1 mg/kg

[18] = clinical; conditions: human, in vivo, po, 0.1 mg/kg
Description: Half life in human at 0.1 mg/kg, po and iv administered as single dose

[19] = test system: Rattus norvegicus; test: Effect on sleep-awake cycle in EEG/EMG rat model assessed as increase in non rapid eye movement sleep at 3 mg/kg measured up to 4 hrs relative to control; assay type: functional
[20] = test system: Rattus norvegicus; test: Effect on sleep-awake cycle in EEG/EMG rat model assessed as latency to 1 min NREM sleep at 3 mg/kg measured up to 4 hrs relative to control; assay type: functional
[21] = Inhibition of H2 receptor

**Q.** Which results are given for `Cc1ccc(-c2nc3ccc(C)cn3c2CC(=O)N(C)C)cc1` [ZOLPIDEM]?
**A.** Activity [1]: 205%; Activity [2]: 17%

**Q.** Which Selectivity ratio [3] does the source give for `C[C@H](C1=C(CCN(C)C)Cc2ccccc21)c1ccccn1` here?
**A.** The Selectivity ratio was 100.

**Q.** With `C[C@H](C1=C(CCN(C)C)Cc2ccccc21)c1cnccn1` as the molecule, how does the Activity [4] read?
**A.** Its Activity is 145%.

**Q.** And the Activity [5]?
**A.** Its Activity is 109%.

**Q.** For `CN(C)CCC=C1c2ccccc2COc2ccccc21` [DOXEPIN], which half-life [6] is on record?
**A.** The half-life was 18 h.

**Q.** And the Activity [7]?
**A.** Its Activity is “Non-toxic”.

**Q.** And the Time [8]?
**A.** The Time was 8 h.

**Q.** And the Activity [9]?
**A.** The Activity was “inactive”.

**Q.** Which clearance [10] does the source give for `C[C@@H](c1ccccn1)c1c(CCN(C)C)sc2ccccc12` here?
**A.** Its clearance is greater than 68 mL/min/kg.

**Q.** What about the pKa [11] of the same molecule?
**A.** Its pKa is 8.5.

**Q.** And the AUC(0-t) [12]?
**A.** Its AUC(0-t) is 1.9 ng·h/mL.

**Q.** What about the clearance [13] of the same molecule?
**A.** The clearance was 3.8 mL/min/kg.

**Q.** What about the half-life [14] of the same molecule?
**A.** Its half-life is 3.6 h.

**Q.** And the concentration at 1 h [15]?
**A.** Its concentration at 1 h is 4 ng/mL.

**Q.** What about the Activity [1] of the same molecule?
**A.** The Activity was 142%.

**Q.** And the Activity [2]?
**A.** Its Activity is 124%.

**Q.** What about the IC50 [16] of the same molecule?
**A.** Its IC50 is greater than 10000 nM.

**Q.** And the AUC(0-t) [17]?
**A.** The AUC(0-t) was 2.8 ng·h/mL.

**Q.** What about the half-life [18] of the same molecule?
**A.** Its half-life is 6.8 h.

**Q.** Which Activity [19] does the source give for `CN(C)CCC1=C(Cc2cccnn2)c2ccc(F)cc2C1` here?
**A.** Its Activity is 136%.

**Q.** What about the Activity [20] of the same molecule?
**A.** Its Activity is 106%.

**Q.** For `COc1nccnc1[C@H](C)C1=C(CCN(C)C)Cc2cc(F)ccc21`, which Ki [21] is on record?
**A.** The Ki was 4.5 nM.
